Key:
[1] = test system: Hansenula polymorpha ATCC 26012; assay: sec-alcohols to ketones by cell suspensions of yeasts; assay type: cell-based
[2] = test system: purified secondary alcohol dehydrogenase (SADH); assay: substrate specificity and Michaelis constants of purified SADH; assay type: biochemical, Pseudomonas sp. ATCC 21439
[3] = test system: cell extracts (NAD+-dependent secondary alcohol dehydrogenase); assay: sec-alcohols to methyl ketones by cell extracts of yeasts, gas chromatography; assay type: biochemical, Torulopsis sp. strain A1 NRRL-Y-11,419; conditions: grown on methanol
Pichia sp. NRRL-Y-11328 = assay: sec-alcohols to ketones by cell suspensions of yeasts; assay type: cell-based
[4] = test system: secondary alcohol dehydrogenase (SADH), cell-free soluble extract; assay: oxidation of sec-alcohols by cell-free soluble extracts; assay type: biochemical, Methylosinus trichosporium OB3b (NRRL B-11,196); conditions: soluble crude extract; grown on methanol
Description: (§1) To prepare the cell-free secondary alcohol dehydrogenase (SADH) system, the washed cells were disrupted with a Wave Energy Ultrasonic Oscillator, Model W201 (Wave Energy System, Inc., Newtown, Pa.) and centrifuged at 20,000×g. for 30 minutes. […] The enzyme activity was measured with a fluorescence spectrophotometer (Perkin Elmer, Model MPF 44A) by following the formation of reduced NAD (EX 340 nm, Em 460 nm). The formation of reduced NAD was also followed with an absorption spectrophotometer at 340 nm. The assay system (3 ml.) contained: potassium phosphate buffer pH 7.0; 150 μmol.; NAD 1 μmol.; a given amount of enzyme preparation; and secondary alcohol 10 μmol. The reaction was started by the addition of substrate. One unit of enzyme activity represents the reduction of one μmole NAD per minute. Protein concentrations were determined by the Lowry method (J. Biol. Chem., 193: 255-275 (1951)).
(§2) The experimental procedure for the tests reported in Table VIII were as follows: 1 mg protein of crude extract was added into a 0.5 ml. 0.05 M phosphate buffer (pH 7.0) in a 10-ml. vial. […] The reaction mixture was incubated at 30° C. on a water bath. A 3 μl sample was removed with a syringe at 15 min. of incubation and was assayed with g.l.c. Catalytic activity was also assayed by fluorescence spectrophotometry.

[5] = test system: secondary alcohol dehydrogenase (SADH), cell-free soluble extract; assay: as above; assay type: biochemical, Methylobacterium organophilum CRL 26 (NRRL B-11,222); conditions: soluble crude extract; grown on methanol
Description: as §1, §2

[6] = test system: secondary alcohol dehydrogenase (SADH), cell-free soluble extract; assay: as above; assay type: biochemical, Methylococcus capsulatus CRL M1 (NRRL B-11,219); conditions: soluble crude extract; grown on methanol
Description: as §1, §2

[7] = test system: cell suspensions of C1-utilizers; assay: studies on production of 2-butanone from 2-butanol by cell suspensions of the strains tested; assay type: cell-based; conditions: cell suspensions
Source text: The following summarizes tests conducted on the optimal conditions for the production of methyl ketones from C3 -C6 sec. alcohols.
The substrate specificity for the oxidation of C3 -C6 secondary alcohols by the strains of C1 -utilizers was studied.

[8] = test system: cell extracts (NAD+-dependent secondary alcohol dehydrogenase); assay: sec-alcohols to methyl ketones by cell extracts of yeasts, gas chromatography; assay type: biochemical, Candida utilis ATCC 26,387; conditions: grown on methanol
Description: The supernantant liquid was termed the crude extracts.
The reaction mixture, in a total of 3.0 ml., contained 50 mM phosphate buffer, pH 7.0, 20 μmole NAD^+, cell extracts (1 ml.).
The ketone product obtained from oxidation of sec-alcohols by cell extracts of organisms were estimated by flame ionization gas chromatography by using a stainless steel column (12 ft. by 1/8 in.) packed with 10% Carbowax 20 M on 80/100 chromosorb w column (Perkin Elmer Corp., Norwalk, Conn.). The column temperature was maintained isothermally at 130° C. and the carrier gas flow was 30 ml. of helium per min. […] The protein content of cell-suspensions was determined by the Lowry et al. method.
NRRL Y-11,328 Torulopsis sp.

[9] = test system: cell extracts (NAD+-dependent secondary alcohol dehydrogenase); assay: as above; assay type: biochemical, Pichia sp. NRRL-Y-11,328; conditions: grown on methanol
[10] = test system: Pseudomonas sp. ATCC 21439 (Obligate); assay: sec-alcohols to ketones by resting cell suspensions; assay type: cell-based; conditions: methanol-grown cells
Description: (§3) The pH of the nutrient medium was adjusted to 7.0 by the addition of acid or base and 50 ml. samples of the nutrient medium were charged into a plurality of 300 ml. shaker flasks. The shaker flasks were inoculated with an inoculating loop of cells from an agar plate containing homogeneous colonies of the microorganisms on the plate (the purity of the isolates was confirmed by microscopic examination). The isolates had been maintained on methanol (0.4% V/V) agar plates or on agar plates under an atmosphere of methane and air having a 1:1 V/V gas ratio which had been transferred every two weeks. For growth on methanol, the medium was supplemented with 0.4% methanol. For growth on methane, the gaseous phase of the inoculated flasks was replaced with a gas mixture comprised of methane and air having a ratio of 1:1 on a V/V basis. The inoculated flasks were sealed air-tight and were incubated on a rotary shaker of orbital radius 2.5 cm. at 250 rpm and at 30° C. for two days until turbidity in the medium had developed. The cells were harvested by centrifugation at 10,000×g. at 4° C. for 30 minutes. The cell pellet was washed twice with a 0.05 M phosphate buffer at a pH of 7.0 (containing 0.02 M MgCl2). The washed cells were then suspended in a 0.05 M phosphate buffer at pH 7.0.
(§4) A 0.5 ml. sample of each washed cell suspension (2 mg. cells) was put into 10 ml. vials at 4° C. which were sealed with a rubber cap. The gaseous phase of the vials was removed with vacuum and then was replaced with a gas mixture of the substrate reactant (i.e., alkane or secondary alcohol) and oxygen at a 1:1 V/V ratio. (In the case of a liquid substrate, i.e., secondary alcohol, 10 μl of the substrate was put in the 10 ml. vials). […] Samples of product (1-3 μl) were withdrawn periodically with a microsyringe and the products were analyzed by gas chromatography (ionization flame detector column).
(§5) The procedure in Example 1 was repeated except that a plurality of methanol-utilizing methylotrophic microorganisms were each aerobically grown in a methanol-containing nutrient medium instead of a methane-containing medium. The nutrients in the medium were the same as indicated in Example 1 except that 0.4% V/V methanol was used as the alcohol dehydrogenase inducer and as the major carbon and energy source for growth. The cells were harvested and washed as described in Example 1. The resting microbial cells of the induced methanol-grown methanol-utilizing methylotrophic microorganisms were then contacted with C3 -C6 secondary alcohols in a buffered solution by the procedure of Example 1.

[11] = test system: Pseudomonas MS ATTC 25262 (Facultative); assay: as above; assay type: cell-based; conditions: methanol-grown cells
Description: as §3, §4, §5

## CC(C)O [2-Propanol, 2-propanol]
[1]; Growth Substrate Ethanol
  Conversion Rate, sec-alcohol to corresponding ketone: 5.0 μmoles/hr/mg of protein
[1]; Growth Substrate Methanol
  Conversion Rate, sec-alcohol to corresponding ketone: 5.9 μmoles/hr/mg of protein
[1]; Growth Substrate Methylamine
  Conversion Rate, sec-alcohol to corresponding ketone: 5.2 μmoles/hr/mg of protein
[1]; Growth Substrate Methylformate
  Conversion Rate, sec-alcohol to corresponding ketone: 5.6 μmoles/hr/mg of protein
[1]; Growth Substrate Propylamine
  Conversion Rate, sec-alcohol to corresponding ketone: 4.1 μmoles/hr/mg of protein
[2]
  oxidation by purified SADH: highest
[3]
  Conversion Rate, sec-alcohol to methyl ketone: 4.5 μmoles/hr/mg Protein
Pichia sp. NRRL-Y-11328; Growth Substrate Ethanol
  Conversion Rate, sec-alcohol to corresponding ketone: 4.5 μmoles/hr/mg of protein
Pichia sp. NRRL-Y-11328; Growth Substrate Methanol
  Conversion Rate, sec-alcohol to corresponding ketone: 5.2 μmoles/hr/mg of protein
Pichia sp. NRRL-Y-11328; Growth Substrate Methylamine
  Conversion Rate, sec-alcohol to corresponding ketone: 4.2 μmoles/hr/mg of protein
Pichia sp. NRRL-Y-11328; Growth Substrate Methylformate
  Conversion Rate, sec-alcohol to corresponding ketone: 4.9 μmoles/hr/mg of protein
Pichia sp. NRRL-Y-11328; Growth Substrate Propylamine
  Conversion Rate, sec-alcohol to corresponding ketone: 3.2 μmoles/hr/mg of protein
[4]
  Oxidation Rate, sec-alcohol to corresponding ketone: 2.0 nmole/min/mg protein
[5]
  Oxidation Rate, sec-alcohol to corresponding ketone: 2.1 nmole/min/mg protein
[6]
  Oxidation Rate, sec-alcohol to corresponding ketone: 1.7 nmole/min/mg protein
[7]
  rate of oxidation of secondary alcohols by strains of C1-utilizers: higher rates
[8]
  Conversion Rate, sec-alcohol to methyl ketone: 4.5 μmoles/hr/mg Protein
[9]
  Conversion Rate, sec-alcohol to methyl ketone: 5.5 μmoles/hr/mg Protein
[10]
  Conversion Rates, sec-alcohol to corresponding ketone: 7.4 μmoles/hr/mg protein
[11]
  Conversion Rates, sec-alcohol to corresponding ketone: 0.80 μmoles/hr/mg protein

Source: patent publication US4250259A, “Microbiological production of ketones from C3 -C6 secondary alcohols” (priority 1979, dated 1981)
